Data: article PMC9917360, “Novel 1,4-Dihydropyridine Derivatives as Mineralocorticoid Receptor Antagonists” (International Journal of Molecular Sciences, 2023)

Legend:
human MR (hMR) [1] = molecular target: T1, human MR (hMR) (Homo sapiens, UniProt P08235); assay: MR gene reporter transactivation assay in transiently transfected COS-7 cells; type: cell-based; conditions: 1,4-DHP derivative 5 μM, 10 nM aldosterone stimulation
T1 construct: expressed in transfected cells; host or cells: COS-7
T1 sequence (P08235 1-984): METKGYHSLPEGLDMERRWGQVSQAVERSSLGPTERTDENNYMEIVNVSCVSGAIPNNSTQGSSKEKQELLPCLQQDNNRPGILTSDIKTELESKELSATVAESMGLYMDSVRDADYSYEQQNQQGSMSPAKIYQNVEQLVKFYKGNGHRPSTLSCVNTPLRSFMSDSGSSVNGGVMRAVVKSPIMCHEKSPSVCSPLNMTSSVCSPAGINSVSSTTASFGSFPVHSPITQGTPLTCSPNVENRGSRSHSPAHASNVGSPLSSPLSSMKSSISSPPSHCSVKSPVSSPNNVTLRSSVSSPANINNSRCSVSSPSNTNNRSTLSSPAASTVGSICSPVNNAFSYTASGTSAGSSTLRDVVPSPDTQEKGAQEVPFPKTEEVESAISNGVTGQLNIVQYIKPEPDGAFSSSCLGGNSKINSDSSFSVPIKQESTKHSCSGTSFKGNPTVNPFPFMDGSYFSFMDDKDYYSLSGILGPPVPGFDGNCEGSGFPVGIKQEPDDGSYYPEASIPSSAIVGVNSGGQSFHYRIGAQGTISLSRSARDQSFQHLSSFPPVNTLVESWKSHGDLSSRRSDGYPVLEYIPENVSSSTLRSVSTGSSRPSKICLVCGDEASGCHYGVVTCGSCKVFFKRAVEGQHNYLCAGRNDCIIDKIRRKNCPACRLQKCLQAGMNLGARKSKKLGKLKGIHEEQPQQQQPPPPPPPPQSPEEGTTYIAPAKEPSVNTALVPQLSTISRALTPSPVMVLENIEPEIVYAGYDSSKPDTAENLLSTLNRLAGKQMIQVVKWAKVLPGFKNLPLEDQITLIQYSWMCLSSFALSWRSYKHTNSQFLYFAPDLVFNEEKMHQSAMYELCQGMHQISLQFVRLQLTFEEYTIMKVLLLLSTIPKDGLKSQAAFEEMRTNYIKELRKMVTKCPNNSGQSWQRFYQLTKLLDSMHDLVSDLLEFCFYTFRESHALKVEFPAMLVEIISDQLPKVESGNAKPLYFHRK
Protocol: Receptor transcriptional activity was assessed using a transactivation gene reporter assay, as described. Briefly, COS-7 cells were seeded on 96-well plates in DMEM supplemented with 10% charcoal-stripped FBS (Biowest, Nuaillé, France). Twenty-four hours after seeding, cells were transfected with pcDNA3-hMR, pcDNA3-hGR, or pCMV-FLAG-hAR in combination with pSG5-luc and pSG5-ren in a 5:4:1 proportion, respectively. […] After 2 h of incubation, cells were further treated with agonists (1 × 10^−8 M aldosterone; 1 × 10^−8 M testosterone or 0.5 × 10^−6 M cortisol) in the presence of each compound for 16 h. […] MR maximum and minimum activity were obtained in each assay using conditions with 1 × 10^−9 M aldosterone or vehicle (ethanol). Each condition was performed in three parallel wells. After treatments, firefly and Renilla luciferase activities were measured sequentially in the cell lysates using a commercially available kit (Dual-Glo; Promega, Madison, WI, USA). Receptor transcriptional activity was calculated as the ratio luc/ren. The activities in each condition were normalized to the activity obtained with vehicle or with agonist as indicated in each figure panel and are expressed a as percentage of the maximum value ± SD.

human AR = molecular target: T2, human AR (Homo sapiens, UniProt P10275); assay: AR reporter gene transactivation assay in COS-7 cells; type: cell-based; conditions: 5 μM derivative, stimulation by 10 nM testosterone
T2 construct: Plasmid pCMV-FLAG-hAR, expressing full-length human AR; host or cells: COS-7
T2 sequence (P10275 1-920): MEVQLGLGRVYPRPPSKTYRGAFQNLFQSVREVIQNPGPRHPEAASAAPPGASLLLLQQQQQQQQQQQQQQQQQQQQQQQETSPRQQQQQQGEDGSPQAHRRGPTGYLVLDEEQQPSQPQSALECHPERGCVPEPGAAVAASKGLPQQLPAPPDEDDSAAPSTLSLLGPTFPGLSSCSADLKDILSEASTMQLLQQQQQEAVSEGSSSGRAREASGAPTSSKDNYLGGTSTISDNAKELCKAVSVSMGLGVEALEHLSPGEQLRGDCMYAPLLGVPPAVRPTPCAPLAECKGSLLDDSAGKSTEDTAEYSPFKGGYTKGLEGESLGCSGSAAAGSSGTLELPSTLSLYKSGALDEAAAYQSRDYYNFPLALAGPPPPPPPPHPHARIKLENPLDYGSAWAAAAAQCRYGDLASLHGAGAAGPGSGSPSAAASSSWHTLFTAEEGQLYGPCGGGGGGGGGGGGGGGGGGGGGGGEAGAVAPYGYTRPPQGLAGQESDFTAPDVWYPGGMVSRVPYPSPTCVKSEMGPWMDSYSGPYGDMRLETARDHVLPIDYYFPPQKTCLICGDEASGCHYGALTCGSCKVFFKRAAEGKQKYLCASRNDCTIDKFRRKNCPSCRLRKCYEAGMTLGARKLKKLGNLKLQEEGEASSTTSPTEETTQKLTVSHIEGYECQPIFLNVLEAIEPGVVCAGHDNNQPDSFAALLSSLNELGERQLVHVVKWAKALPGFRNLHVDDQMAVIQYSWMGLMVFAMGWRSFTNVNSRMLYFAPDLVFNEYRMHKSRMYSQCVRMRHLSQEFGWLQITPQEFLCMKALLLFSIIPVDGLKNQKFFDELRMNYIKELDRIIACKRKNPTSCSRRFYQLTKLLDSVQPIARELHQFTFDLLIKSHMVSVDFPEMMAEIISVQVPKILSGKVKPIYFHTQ
Protocol: Receptor transcriptional activity was assessed using a transactivation gene reporter assay, as described. Briefly, COS-7 cells were seeded on 96-well plates in DMEM supplemented with 10% charcoal-stripped FBS (Biowest, Nuaillé, France). Twenty-four hours after seeding, cells were transfected with pcDNA3-hMR, pcDNA3-hGR, or pCMV-FLAG-hAR in combination with pSG5-luc and pSG5-ren in a 5:4:1 proportion, respectively. […] After 2 h of incubation, cells were further treated with agonists (1 × 10^−8 M aldosterone; 1 × 10^−8 M testosterone or 0.5 × 10^−6 M cortisol) in the presence of each compound for 16 h. Assays using hMR included a control condition with 0.25 × 10^−6 M eplerenone. MR maximum and minimum activity were obtained in each assay using conditions with 1 × 10^−9 M aldosterone or vehicle (ethanol). Each condition was performed in three parallel wells. After treatments, firefly and Renilla luciferase activities were measured sequentially in the cell lysates using a commercially available kit (Dual-Glo; Promega, Madison, WI, USA). Receptor transcriptional activity was calculated as the ratio luc/ren. The activities in each condition were normalized to the activity obtained with vehicle or with agonist as indicated in each figure panel and are expressed a as percentage of the maximum value ± SD.

human MR (hMR) [2] = molecular target: T1, human MR (hMR); assay: [3H]-aldosterone displacement from human MR, ligand-receptor binding assay in transfected COS-7 cells; conditions: 1 nM [3H]-aldosterone, increasing concentrations of unlabeled ligand, one-site model
Protocol: Ligand-receptor binding assays were performed as described before. Briefly, COS-7 cells were seeded on 24-well plates and transfected with plasmid pcDNA3-hMR. Twenty-four hours after transfection, cells were washed once with serum-free DMEM and incubated for 2 h in 500 μL of the same medium containing the indicated concentration of each compound. After this initial period, cells were further incubated with the indicated compounds and 1 × 10^−9 M [^3H]-aldosterone (PerkinElmer Life Sciences, Waltham, MA, USA) for one additional hour. Cells were then washed twice with phosphate-buffered saline (PBS: 137 mM NaCl, 2,7 mM KCl, 10 mM Na2HPO4, 1.8 mM KH2PO4, pH 7.4) and then extracted with 200 μL of an ethanol:water mix (4:1, v:v). Disintegrations were recorded using liquid scintillation in a β counter. Control conditions included non-transfected cells, transfected cells treated with unlabeled aldosterone or transfected cells, treated with 1 nM [^3H]-aldosterone in the presence of 1 × 10^−5 M unlabeled aldosterone. Specific binding was determined by subtracting the number of disintegrations per minute (dpm) in the presence of 1 × 10^−5 M unlabeled aldosterone from the condition with 1 nM [^3H]-aldosterone. Each condition was performed in triplicate. Competition of each compound for 1 nM [^3H]-aldosterone binding was calculated as the percentage of the maximum binding obtained in the absence of compound.

- MR activity, % of the maximal activity (human MR (hMR) [1]): 57%
- decrease of AR activation (human AR): 15%
- Ki (human MR (hMR) [2]): 262 nM
Structure (SMILES): COC(=O)C1=C(CNC(=O)OCc2ccccc2)NC(C)=C(C#N)C1c1ccc(C#N)cc1OC (stereo not drawn) [Compound 16, Methyl 2-[(benzyloxycarbonyl)amino]methyl-5-cyano-4-(4-cyano-2-methoxy)phenyl-6-methyl-1,4-dihydropyridine-3-carboxylate]
